# Assay results reported in patent US6100254A, “Inhibitors of protein tyrosine kinases” (Board of Regents, The University of Texas System, priority 1997, dated 2000).
# Structures can show the parent of a compound that is named as a salt. *1 amine or outer side, *2 acyl side, *3 side chain or, on linkers, in order; H or OH if unused. Where a SMILES comes first, the peptide text is derived from it. Bridges are numbered along the chain shown (N, C = ends). Roman numbers before positions name the chains, in order. [ ]: non-standard residue; d: D form. Actinocin(9to1) = Cc1c2oc3c(C)ccc(C(=O)[*:1])c3nc-2c(C(=O)[*:2])c(N)c1=O; NMeV = CN[C@H](C(=O)O)C(C)C; Sar = CNCC(=O)O
# Columns and labels:
# [1] = oral administration, multiple myeloma; cited from earlier work
# [2] = cited from earlier work; for elimination half-life: intravenous
# [3] = previously untreated chronic myelogenous leukemia; cited from earlier work
# Csk (C-Src kinase) = target: T1, Csk (C-Src kinase) (Homo sapiens, UniProt P41240); experiment: Csk tyrosine kinase activity, poly E4Y and 32P-ATP; format: biochemical
# T1 construct: glutathione-S-transferase (GST) (N); made in house; host or cells: E. coli
# Source text: (§1) The genes encoding Csk, Lck, Abl, and the FGF receptor have all been cloned. The genes encoding Csk, Abl, and the FGF receptor were cloned from humans, and the genes encoding Lck were cloned from a mouse. Recombinant Csk, Lck, Abl, and the FGFr were expressed as glutathione-S-transferase fusion proteins using the pGEX expression vector and E. coli, and purified as described (Sun et al., 1995).
# (§2) Recombinant Src was expressed using the baculovirus-insect cell system and purified as published (Budde et al, 1993). Recombinant Csk, Lck, Abl, and the FGFr were expressed as glutathione-S-transferase fusion proteins using the pGEX expression vector and E. coli, and purified as described (Sun and Budde, 1995).
# (§3) The tyrosine kinase activity of Src, Lck (p56^lck), Csk (C-Src kinase), Abl (Bcr-Abl catalytic domain), and the FGFr (fibroblast growth factor receptor catalytic domain), was determined using poly E4 Y and ^32 P-ATP.
# Lck (p56^lck) = target: T2, Lck (p56^lck) (Mus musculus, UniProt P06240); experiment: Lck tyrosine kinase activity, poly E4Y and 32P-ATP; format: biochemical
# T2 construct: glutathione-S-transferase (GST) (N); made in house; host or cells: E. coli
# Source text: as §1, §2, §3
# [4] = tested on: HT-29 colon adenocarcinoma cells; experiment: Anchorage-independent growth, soft agar colony formation; format: cell-based, human
# Method: Soft agar colony formation is used to determine anchorage independent growth, an in vitro parameter which correlates well with tumorigenicity of HT 29 cells. (AFB-13 cells are unable to form soft agar colonies, a characteristic of normal cells). These assays are performed in 6 well ([…]) multiwell tissue culture dishes. The wells are underlayed with 1% low melting agarose in complete growth media, and refrigerated for 15 min. 1×10^3 HT 29 cells are then added to the wells in complete media in 0.5% low melting agarose. […] After a 24 h incubation period, 0.5 mL of media containing compound to be tested (or media alone as a control) is added to the dish. During the assay, media with or without the test compound is replenished every 3 days. Colonies estimated to contain >100 cells are counted after 14 days. For compounds that induce growth inhibition, the assay is continued to 28 days to assure that differences in colony forming ability were not due to altered growth rate of cells. For initial screening, assays are performed in duplicate for each compound to be tested, due to the large amount of inhibitor required for the length of the study.
# [5] = target: FGFr (fibroblast growth factor receptor catalytic domain); experiment: FGFr tyrosine kinase activity, poly E4Y and 32P-ATP; format: biochemical, human
# Source text: as §1, §2, §3
# Src [6] = target: T3, Src (Homo sapiens, UniProt P12931); experiment: Src tyrosine kinase activity, poly E4Y and 32P-ATP; format: biochemical; details: for Ki: Table 10, benzodiazepines as inhibitors of Src
# T3 construct: made in house; host or cells: baculovirus-insect cell system
# Method: The compounds within the library were screened at a concentration of 100 μM using the following assay procedure. A 10 μL aliquot of poly(Glu:Tyr, 4:1) to final concentration of 200 μg/mL, 20 μL of benzodiazepine to be tested, 10 μL of purified Src and 10 μL of [gamma-^32 P]-ATP-MgCl2 cocktail (final concentration of 0.2 mM ATP; specific activity of 600 dpm/pmol, and 6 mM MgCl2) were mixed and incubated in 0.5 mL test tubes at ambient temperature. After 30 min, a 35 μL aliquot was spotted onto a 1×1 inch 3 MM filter paper and dropped into a 5% TCA bath at 60° C. The filter papers were washed 3 times with 5% TCA and air dried. The filter papers were then placed into a vial, 3 mL scintillation cocktail added, and analyzed by liquid scintillation counting.
# as §3
# [7] = tested on: AFB-13 normal human fibroblasts; experiment: Growth of AFB-13 cells, control for cellular toxicity; format: cell-based
# Method: (§4) For these assays 2×10^4 cells are plated in 24 well multiwell tissue culture dishes, in 1 ml of DME/F12 media supplemented with 5% fetal bovine serum. After 24 h, media is replaced with fresh media containing the concentration of inhibitor to be tested, or no inhibitor as a control. Cells are counted 1, 3, and 5 days subsequent to addition of inhibitor. For the day 5 counts, media with fresh inhibitor is used to replace spent media after day 3. […] For counting viable cells, cultures are trypsinized, stained with trypan blue, and cell number determined by counting under light microscopy with the use of a hemacytometer. Benzodiazepine derivatives were tested at their maximally soluble concentrations in 0.1% DMSO diluted with tissue culture medium, and serial dilutions were made thereof. Every concentration tested was performed in triplicate, in identical wells under identical assay conditions.
# [8] = tested on: HT-29 colon adenocarcinoma cells; experiment: Growth of HT-29 cells, viable cell count; format: cell-based, human; details: viable cell count 5 days after plating
# Method: as §4
# protein kinase A (PKA) = protein kinase A (PKA) (Homo sapiens, UniProt P17612); experiment: Enzyme panel: protein kinase A; format: biochemical
# [9] = target: T4, Abl (Bcr-Abl catalytic domain) (Homo sapiens, UniProt P00519); experiment: Abl tyrosine kinase activity, poly E4Y and 32P-ATP; format: biochemical
# T4 construct: Abl (Bcr-Abl catalytic domain); glutathione-S-transferase (GST) (N); made in house; host or cells: E. coli
# T4 sequence (P00519 242-493 limits assumed): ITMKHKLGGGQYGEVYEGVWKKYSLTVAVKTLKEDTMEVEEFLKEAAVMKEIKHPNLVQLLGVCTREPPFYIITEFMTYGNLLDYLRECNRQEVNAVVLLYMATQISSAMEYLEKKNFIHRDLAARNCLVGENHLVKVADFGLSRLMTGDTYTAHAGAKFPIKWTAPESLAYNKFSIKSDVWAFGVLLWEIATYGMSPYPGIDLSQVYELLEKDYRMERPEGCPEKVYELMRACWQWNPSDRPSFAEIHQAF
# Source text: as §1, §2, §3
# hexokinase (HXK) = experiment: Enzyme panel: hexokinase; format: biochemical
# [10] = cited from earlier work
# [11] = human, in vivo; cited from earlier work
# Src [12] = details: Table 10, published peptides as inhibitors of Src; cited from earlier work
# [13] = Homo sapiens, HT-29, 336 h, colonies ≥100 cells 14 days after plating
# [14] = Homo sapiens, Fibroblast, 120 h, viable cell count 5 days after plating
# T3 sequence (P12931 whole entry, species assumed): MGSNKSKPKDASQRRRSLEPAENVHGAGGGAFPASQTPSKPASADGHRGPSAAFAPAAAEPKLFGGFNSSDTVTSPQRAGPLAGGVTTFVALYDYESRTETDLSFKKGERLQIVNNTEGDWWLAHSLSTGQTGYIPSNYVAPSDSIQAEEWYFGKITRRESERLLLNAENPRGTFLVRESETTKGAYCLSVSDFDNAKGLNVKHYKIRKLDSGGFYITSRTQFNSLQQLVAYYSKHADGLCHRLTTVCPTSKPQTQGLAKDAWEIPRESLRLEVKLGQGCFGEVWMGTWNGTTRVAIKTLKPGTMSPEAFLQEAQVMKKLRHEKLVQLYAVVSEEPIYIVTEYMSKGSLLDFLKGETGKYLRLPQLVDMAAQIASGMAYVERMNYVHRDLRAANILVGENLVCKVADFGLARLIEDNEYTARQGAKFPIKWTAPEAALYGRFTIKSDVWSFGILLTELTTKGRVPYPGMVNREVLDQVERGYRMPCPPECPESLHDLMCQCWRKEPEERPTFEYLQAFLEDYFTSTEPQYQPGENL
# T2 sequence (P06240 whole entry): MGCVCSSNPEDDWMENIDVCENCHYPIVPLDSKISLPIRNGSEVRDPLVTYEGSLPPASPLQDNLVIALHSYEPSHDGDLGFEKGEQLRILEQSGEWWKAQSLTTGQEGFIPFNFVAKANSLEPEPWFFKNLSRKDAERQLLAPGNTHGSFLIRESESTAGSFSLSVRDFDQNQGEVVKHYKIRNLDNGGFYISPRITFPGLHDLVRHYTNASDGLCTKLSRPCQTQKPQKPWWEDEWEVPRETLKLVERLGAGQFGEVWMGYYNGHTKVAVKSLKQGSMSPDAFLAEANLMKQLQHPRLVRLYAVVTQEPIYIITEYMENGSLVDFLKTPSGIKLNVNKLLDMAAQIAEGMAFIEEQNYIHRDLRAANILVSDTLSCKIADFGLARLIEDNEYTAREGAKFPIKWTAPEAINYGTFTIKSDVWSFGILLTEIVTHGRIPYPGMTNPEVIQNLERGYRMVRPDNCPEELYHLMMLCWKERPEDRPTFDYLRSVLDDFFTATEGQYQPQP
# T1 sequence (P41240 whole entry): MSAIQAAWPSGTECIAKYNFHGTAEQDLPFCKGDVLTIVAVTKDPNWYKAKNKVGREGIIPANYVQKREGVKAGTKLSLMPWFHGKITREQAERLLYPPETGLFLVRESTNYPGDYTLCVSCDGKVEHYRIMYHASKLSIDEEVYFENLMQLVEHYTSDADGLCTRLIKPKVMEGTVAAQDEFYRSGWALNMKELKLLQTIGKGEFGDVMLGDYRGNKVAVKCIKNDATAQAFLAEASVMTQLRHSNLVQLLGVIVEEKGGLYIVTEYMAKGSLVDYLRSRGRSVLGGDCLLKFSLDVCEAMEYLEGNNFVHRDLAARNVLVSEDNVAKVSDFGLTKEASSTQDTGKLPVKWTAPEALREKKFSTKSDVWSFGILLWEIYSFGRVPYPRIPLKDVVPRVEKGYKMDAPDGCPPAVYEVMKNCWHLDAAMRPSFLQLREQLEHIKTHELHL
compound,measurement,setting,value
4-[bis(2-chloroethyl)amino]-L-phenylalanine [Melphalan],patients showing a favorable response,[1],one third to one half
"Cc1c2oc3c(C)ccc(C(=O)N[C@@H]4C(=O)N[C@H](C(C)C)C(=O)N5CCC[C@H]5C(=O)N(C)CC(=O)N(C)[C@@H](C(C)C)C(=O)O[C@@H]4C)c3nc-2c(C(=O)N[C@@H]2C(=O)N[C@H](C(C)C)C(=O)N3CCC[C@H]3C(=O)N(C)CC(=O)N(C)[C@@H](C(C)C)C(=O)O[C@@H]2C)c(N)c1=O [Actinomycin D] (I: T[dV]P[Sar][NMeV] / II: T[dV]P[Sar][NMeV]; ester I:1-I:C, II:1-II:C; linker I:N-II:N via Actinocin(9to1))",dose excreted intact into the bile,[2]; in vivo,Half
same,passage of the blood-brain barrier,[2]; in vivo,does not pass the blood-brain barrier
"CS(=O)(=O)OCCCCOS(C)(=O)=O [Busulfan, 1,4-butanediol dimethanesulfonate]",adults obtaining hematologic remission,[3],Approximately 90%
"O=C(O)CCCc1ccc(N(CCCl)CCCl)cc1 [Chlorambucil, 4-[bis(2-chlorethyl)amino]benzenebutanoic acid]",terminal half-life of the parent drug,[2]; single oral doses of 0.6-[…],1.5 h
N.N.[Cl][Pt][Cl] [Cisplatin],oral absorption,[2]; in vivo,not absorbed orally
"O=C1[C@@H](Cc2ccc(O)cc2)N=C(c2ccc(O)cc2)c2cc(Cl)ccc2N1Cc1ccc(-c2ccccc2)cc1 [D-Tyr,BnzPh, 7-chloro-1,3-dihydro-1-(-4-biphenylmethyl)-3-(-4-hydroxyphenylmethyl)-5-(4-hydroxyphenyl)-(2H)1,4-benzodiazepin-2-one]",IC50,Csk (C-Src kinase),404 µM
same,IC50,Lck (p56^lck),640 µM
same,activity at 3 µM,[4]; [13],94%
same,activity at 16 µM,"[4]; Homo sapiens, HT-29, 336 h, 16 μM, colonies ≥100 cells 14 days after plating",90%
same,activity at 32 µM,"[4]; Homo sapiens, HT-29, 336 h, 32 μM, colonies ≥100 cells 14 days after plating",100%
same,IC50,[5],335 µM
same,IC50,Src [6],97 µM
same,Ki,Src [6],43 µM
same,activity at 3 µM,[7]; [14],89 ± 6%
same,activity at 16 µM,"[7]; Homo sapiens, Fibroblast, 120 h, 16 μM, viable cell count 5 days after plating",100 ± 4%
same,activity at 32 µM,"[7]; Homo sapiens, Fibroblast, 120 h, 32 μM, viable cell count 5 days after plating",100 ± 7%
same,HT-29 Growth,[8]; 32 μM,cytotoxic
same,activity at 3 µM,"[8]; Homo sapiens, HT-29, 120 h",94 ± 9%
same,activity at 16 µM,"[8]; Homo sapiens, HT-29, 120 h, 16 μM",74 ± 5%
same,IC50,protein kinase A (PKA),54 µM
"COc1cccc2c1C(=O)c1c(O)c3c(c(O)c1C2=O)C[C@@](O)(C(C)=O)C[C@@H]3O[C@H]1C[C@H](N)[C@H](O)[C@H](C)O1 [Daunorubicin, 5,12-Naphthacenedione, (8S-cis)-8-acetyl-10-[(3-amino-2,3,6-trideoxy-α-L-lyxo-hexanopyranosyl)oxy]-7,8,9,10-tetrahydro-6,8,11-trihydroxy-10-methoxy-, hydrochloride]",oral absorption,[2]; in vivo,poor
same,elimination half-life,[2],about 19 hr
"COc1cccc2c1C(=O)c1c(O)c3c(c(O)c1C2=O)C[C@@](O)(C(=O)CO)C[C@@H]3O[C@H]1C[C@H](N)[C@H](O)[C@H](C)O1 [Doxorubicin, 5,12-Naphthacenedione, (8s-cis)-10-[(3-amino-2,3,6-trideoxy-α-L-lyxo-hexopyranosyl)oxy]-7,8,9,10-tetrahydro-6,8,11-trihydroxy-8-(hydroxyacetyl)-1-methoxy-hydrochloride]",oral absorption,[2]; in vivo,absorbed poorly
same,secreted into the bile,[2]; in vivo,Forty to 50
same,elimination half-life,[2],about 30 hr
"O=C1[C@H](Cc2ccc(O)cc2)N=C(c2ccc(O)cc2)c2cc(Cl)ccc2N1Cc1ccccc1 [L-Tyr,Bnz]",IC50,Csk (C-Src kinase),404 µM
same,IC50,[9],931 µM
same,IC50,hexokinase (HXK),352 µM
same,IC50,Lck (p56^lck),570 µM
same,inhibition of colony formation of HT-29 colon adenocarcinoma cells,[4]; 30 μM,complete inhibition
same,activity at 3 µM,[4]; [13],52%
same,activity at 15 µM,"[4]; Homo sapiens, HT-29, 336 h, 15 μM, colonies ≥100 cells 14 days after plating",11%
same,activity at 30 µM,"[4]; Homo sapiens, HT-29, 336 h, 30 μM, colonies ≥100 cells 14 days after plating",0%
same,IC50,[5],418 µM
same,IC50,Src [6],190 µM
same,Ki,Src [6],74 µM
same,activity at 3 µM,[7]; [14],100 ± 4%
same,activity at 15 µM,"[7]; Homo sapiens, Fibroblast, 120 h, 15 μM, viable cell count 5 days after plating",92 ± 6%
same,activity at 30 µM,"[7]; Homo sapiens, Fibroblast, 120 h, 30 μM, viable cell count 5 days after plating",92 ± 8%
same,inhibition of growth of AFB-13 normal fibroblasts,[7]; same concentrations (up to 30 μM),no inhibition
same,activity at 3 µM,"[8]; Homo sapiens, HT-29, 120 h",100 ± 3%
same,activity at 15 µM,"[8]; Homo sapiens, HT-29, 120 h, 15 μM",84 ± 6%
same,activity at 30 µM,"[8]; Homo sapiens, HT-29, 120 h, 30 μM",73 ± 9%
same,IC50,protein kinase A (PKA),124 µM
"O=NN(CCCl)C(=O)NC1CCCCC1 [Lomustine, 1-(2-chloro-ethyl)-3-cyclohexyl-1 nitrosourea]",solubility in absolute alcohol,[10]; absolute alcohol,70 mg per ml
same,solubility in water,[10]; water,< 0.05 mg per ml
same,radioactivity excreted as degradation products within 24 hours,"[2]; oral radioactive drug, 30 mg/m^2 to 100 mg/m^2",about half
CO[C@@]12[C@H](COC(N)=O)C3=C(C(=O)C(C)=C(N)C3=O)N1C[C@@H]1N[C@@H]12 [Mitomycin],dose excreted unchanged in the urine,[11],Approximately 10%
DRVYVHPF,Ki,Src [12],3100 µM
EEIYGEFE,Ki,Src [12],70 µM
EFEYAFF,Ki,Src [12],130 µM
KKSRGDYMTMQIG,Ki,Src [12],200 µM
RDRVYVHPF,Ki,Src [12],2600 µM
RRLIEDAEYAARG,Ki,Src [12],10000 µM
YIYGSFK,Ki,Src [12],1600 µM
